Results published in EP0585371B1, “AROMATIC OLIGOMERIC COMPOUNDS USEFUL AS MIMICS OF BIOACTIVE MACROMOLECULES” (RHONE-POULENC RORER INTERNATIONAL (HOLDINGS) INC., priority 1991, dated 1992).

What was measured:
[1] = test system: normal pooled plasma; test: Anticoagulation activity, Activated Partial Thromboplastin Time (APTT) test; conditions: concentration required to double clotting time
Description: The following test measures anticoagulant activity of the oligomers of the present invention and utilizes the Activated Partial Thromboplastin Time (APTT) test, with the following procedures.
To an assay cuvette is added 100 µl of normal pooled plasma (George King Biomedical Inc., Kansas) and […] of a solution containing the test compound in aqueous 50 mM Tris hydrochloride at pH 7.5 (0.2 mg of sample in one ml buffer). The sample is placed in a MLA coagulation timer which automatically maintains the sample at 37°C for 2.5 minutes, 100 µl of actin activated cephaloplastin reagent is injected, kept 5 minutes, 100 µl of 35 mM CaCI is injected, and clot formation is determined photometrically and the clotting time recorded. Each example is examined at a variety of concentrations, generally from about .025 mg/ml to about 1 mg/ml, and the clotting times are graphed as a function of concentration. From the graphic results, the concentration required to double clotting time (ICDCT) is calculated by linear interpolation.

[2] = test system: Vascular smooth muscle cells (VSMC); test: Smooth Muscle Cell DNA Synthesis Assay (3H-thymidine incorporation in response to PDGF); assay type: cell-based, swine; conditions: inhibition of incorporation of 3H-thymidine in response to PDGF (9 ng/ml)
Description: Vascular smooth muscle cells (VSMC) are isolated from swine coronaries obtained from swine hearts (Hatfield Meat Packing, Hatfield, PA) by enzyme dissociation as described by Gunther, et al., in J. Cell. Biol. 92, 289 (1982). Hyaluronidase (0.5 mg/ml) is added to facilitate dispersal. Cells are maintained in Earle's modified minimal essential medium (EMEM) with D-valine substituted for L-valine, supplemented with Hepes (10 mM), fetal bovine serum (FBS) (10%), penicillin (100 U/ml) and streptomycin ( 100 µg/ml).
The VSMC (passage 2) are plated at a density of 3 x 10^4 /cm2 (1x10^4 cells/well of 96 well tray) and after 48 hours of normal growth are arrested by replacement of above media with serum-free media for 48 hours consisting of: EMEM: Hams F12 (1:1), insulin, 5 µg/ml; transferrin, 35 µg/ml; selenite, 5 ng/ml; antibiotics and buffer (as above). The oligomer of the present invention to be tested (.01-10 µM) is added 2 hours prior to addition of porcine platelet derived growth factor (Research and Diagonostics, Minneapolis, MN), or FBS,in fresh serum-free media. Twenty-four hours later the oligomers are again added preceding addition of growth factors by 2 hours. […]
The VSMC are pulsed (5 hours) with ^3H-thymidine (Amersham, Arlington Heights, IL) (1 µCi/well of a 96 well plate; 42 Ci/mmole) added 15-18 hours after the last dose of growth factor. DNA synthesis is determined in NaOH extraction of ethanol/ether fixed cells as reported by Nemecek, et al., PNAS 83, 674 (1986). The cells are washed with phosphate bufferred saline (200 µl/well of 96-well tray. The cells are incubated with trichloroacetic acid (TCA) (10%, 200 ul) for 5 minutes to remove cytoplasmic label. After a rapid wash with cold 10% TCA, cells are fixed with ethanol/ether (2:1, 200 µl/well 5 min) and dried. The labeled DNA is extracted with 0.5 N NaOH (200 µl/well 30 min incubation, room temperature). The extracted DNA is neutralized (0.5 N HCI) and counted by liquid scintillation.
Statistical evaluation is as reported by Bilder, et al., Am. […] IC50 values are calculated by linear regression (RPL of RS1) from % inhibition of a minimum of 3 log fold dilutions of oligomers in the presence of PDGF (9 ng/ml) which give 70-80% of a maximal PDGF response. […] Percent inhibition is calculated by comparing the effect of PDGF alone (vehicle treated cultures + PDGF minus vehicle treated cultures without PDGF) to the effect of oligomers (oligomer + PDGF minus oligomer alone) and divided by the effect of PDGF times 100. i.e., = % inhibition = ((ΔVehicle + PDGF) - (Δoligomer + PDGF)/(Δvehicle + PDGF)) x 100.

[3] = test system: human fixed thrombin activated platelets; test: Platelet aggregation inhibition (fibrinogen-induced); assay type: cell-based; conditions: human fibrinogen added
Description: The method for measuring platelet aggregation inhibition is essentially that of Ruggeri, et al., Proc. Natl. Acad. Sci. USA, 83, 5708-5712 (1986), using formalin-fixed platelets as prepared by Plow, et al., Proc. Natl. Acad. Sci. USA, 79, 3711-3715 (1982). A given amount of the compound of the present invention or other compound to be tested (10 to 100 µl of a 1 mg/ml solution) is incubated at 37°C with 400 µl of human fixed thrombin activated platelets for 2 minutes. 12.5 µl of human fibrinogen solution is added and aggregation is monitored using a platelet aggregation profiler (Model PAP-4). Controls consist of fibrinogen added to incubated platelets and the resulting aggregation is considered as 100%. Percent inhibition in the presence of a given concentration of test compound versus concentration of the compound is plotted and the concentration required to give 50% inhibition (IC50) is determined.

[4] = biological target: T1, ESb mouse lymphoma heparanase (Mus musculus, UniProt Q6YGZ1); test: Inhibition of heparanase activity (degradation of labeled ECM heparan sulfate); assay type: biochemical; conditions: 24 hours incubation with labeled ECM
T1 construct: endogenous in cells; host or cells: ESb mouse lymphoma cells
T1 sequence (Q6YGZ1 28-535): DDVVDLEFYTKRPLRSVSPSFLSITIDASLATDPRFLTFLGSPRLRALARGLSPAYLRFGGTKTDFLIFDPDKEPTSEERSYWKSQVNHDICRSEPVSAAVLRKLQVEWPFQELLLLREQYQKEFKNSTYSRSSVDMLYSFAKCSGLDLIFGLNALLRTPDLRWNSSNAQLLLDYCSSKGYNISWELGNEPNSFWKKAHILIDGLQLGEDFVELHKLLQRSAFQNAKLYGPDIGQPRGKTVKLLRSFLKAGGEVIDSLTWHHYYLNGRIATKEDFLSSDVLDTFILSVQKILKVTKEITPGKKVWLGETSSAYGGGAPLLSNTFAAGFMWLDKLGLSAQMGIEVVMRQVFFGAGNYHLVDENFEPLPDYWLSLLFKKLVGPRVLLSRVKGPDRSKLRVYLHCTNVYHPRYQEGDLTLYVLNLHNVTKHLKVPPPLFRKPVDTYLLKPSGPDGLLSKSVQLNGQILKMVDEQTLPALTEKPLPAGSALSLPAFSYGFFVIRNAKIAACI
Description: Heparanase is an endoglucuronidase capable of degrading […] (HS) at specific intrachain sites.
The ability of compounds of the present invention to inhibit lymphomacell derived heparanase is tested in the assay system described by Vlodavsky et al., Cancer Research 43, 2704-2711 (1983). […] labeled ECM is incubated for 24 hours with ESb mouse lymphoma heparanase in the presence of various concentrations of the oligomers tested. Degradation of the HS is followed by gel filtration of the supematants. Heparanase activity is expressed as the total amount of labeled low-molecular-weight fragments released from the EMC substrate.

IC50 [2]: 40 nM
Platelet Aggregation IC50 [3]: 250 µg/mL
% Inhibition of Heparanase Activity (5µg/ml) [4]: 68%
SMILES: Cc1cc(O)c(Cc2cc(O)c(Cc3cc(O)c(Cc4cc(O)c(Cc5cc(O)c(Cc6cc(O)c(Cc7cc(O)c(Cc8cc(O)c(Cc9cc(O)c(Cc%10cc(O)c(Cc%11cc(O)c(Cc%12cc(O)c(Cc%13cc(O)c(Cc%14cc(O)c(Cc%15cc(O)c(Cc%16cc(O)ccc%16CCC(=O)O)cc%15CCC(=O)O)cc%14CCC(=O)O)cc%13CCC(=O)O)cc%12CCC(=O)O)cc%11CCC(=O)O)cc%10CCC(=O)O)cc9CCC(=O)O)cc8CCC(=O)O)cc7CCC(=O)O)cc6CCC(=O)O)cc5CCC(=O)O)cc4CCC(=O)O)cc3CCC(=O)O)cc2CCC(=O)O)cc1CCC(=O)O [Ex 2, Step 26]
APTT ICDCT [1]: 35 µg/mL
